Results: ChEMBL document CHEMBL2069291, “Orally available pyridinylpyrimidine derivatives as novel RANKL-induced osteoclastogenesis inhibitors” (Bioorg Med Chem Lett, 2012)

Experiments:
[1] = Cmax in ovariectomized Wistar rat at 3 mg/kg, po administered as single dose; type: ADME, organism-based; parameters: dose 3 mg/kg, route oral; conditions: female, in vivo
[2] = Permeability of the compound by PAMPA assay; type: ADME; conditions: read-out: permeability
[3] = AUC (0 to infinity) in female C57BL/6 mouse at 3 mg/kg, po administered as single dose; type: ADME, organism-based; parameters: dose 3 mg/kg, route oral, time infinity; conditions: plasma
[4] = Solubility in phosphate buffer at pH 6.8; type: physicochemical
[5] = Cmax in female C57BL/6 mouse at 3 mg/kg, po administered as single dose; type: ADME, organism-based; parameters: dose 3 mg/kg, route oral; conditions: in vivo
[6] = AUC (0 to infinity) in ovariectomized Wistar rat at 3 mg/kg, po administered as single dose; type: ADME, organism-based; parameters: dose 3 mg/kg, route oral, time infinity; conditions: female, plasma
[7] = Cmax in female C57BL/6 mouse at 1 mg/kg, po administered as single dose; conditions: in vivo
[8] = AUC (0 to infinity) in female C57BL/6 mouse at 1 mg/kg, po administered as single dose; conditions: plasma

SMILES	Cmax [1] [µg/mL]	Papp [2] [nm/s]	AUC(0-inf) [3] [µg·h/mL]	solubility [4] [mg/mL]	Cmax [5] [µg/mL]	AUC(0-inf) [6] [µg·h/mL]	Cmax [7] [µg/mL]	AUC(0-inf) [8] [µg·h/mL]
COc1cnc(-c2ccccn2)nc1NCc1ccccc1F	0.049	> 300	0.24	> 0.025	0.13	0.151		
COc1cnc(-c2ccccn2)nc1NCc1c(F)cc(F)cc1F	0.135	> 300	0.188	> 0.025	0.098	0.542		
COc1cnc(-c2ccccn2)nc1NCc1ccc(F)cc1C(F)(F)F	0.156	> 300	1.02	> 0.025	0.599	0.943		
COc1cnc(-c2ccccn2)nc1N1CCCC1							0.007	0.015
